In ChEMBL document CHEMBL1201862, “PubChem BioAssay data set” (2004):
Activity calls are given as the source filed them.

Tests used:
HEK293 [1] = test: cells; type: functional, cell-based; settings: Homo sapiens
[2] = molecular target: T1, Nuclear receptor subfamily 0 group B member 1 (Homo sapiens, UniProt P51843); test: Luminescence-based cell-based high throughput dose response assay for inhibitors of the orphan nuclear receptor subfamily 0, group B, member 1 (DAX1; NR0B1). [Related pubchem assays (depositor defined):AID504766, AID504790]; type: functional
T1 sequence (P51843 whole entry): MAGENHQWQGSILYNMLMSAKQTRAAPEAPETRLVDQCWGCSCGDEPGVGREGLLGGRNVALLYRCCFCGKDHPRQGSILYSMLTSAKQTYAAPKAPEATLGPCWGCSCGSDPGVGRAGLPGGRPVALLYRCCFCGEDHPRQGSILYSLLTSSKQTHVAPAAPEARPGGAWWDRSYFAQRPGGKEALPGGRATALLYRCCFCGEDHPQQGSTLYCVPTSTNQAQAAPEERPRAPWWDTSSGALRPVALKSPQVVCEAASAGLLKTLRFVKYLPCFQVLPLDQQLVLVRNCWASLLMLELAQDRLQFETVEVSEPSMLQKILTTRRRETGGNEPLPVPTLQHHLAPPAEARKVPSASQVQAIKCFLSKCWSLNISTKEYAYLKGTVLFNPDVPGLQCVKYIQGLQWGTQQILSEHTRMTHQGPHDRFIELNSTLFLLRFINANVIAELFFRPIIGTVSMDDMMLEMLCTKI

HEK293 [3] = test: cells; settings: Homo sapiens
HEK293 [4] = test: cells; settings: Homo sapiens; remark: listed apart in the source
[5] = molecular target: T2, Microphthalmia-associated transcription factor (Homo sapiens, UniProt O75030); test: TRPM1 promoter luciferase signal decrease, dose response, MITF inhibitor project, cell-based, SK-MEL-5, cherry-picked, set 3 (AID 493073); type: functional
T2 sequence (O75030 whole entry): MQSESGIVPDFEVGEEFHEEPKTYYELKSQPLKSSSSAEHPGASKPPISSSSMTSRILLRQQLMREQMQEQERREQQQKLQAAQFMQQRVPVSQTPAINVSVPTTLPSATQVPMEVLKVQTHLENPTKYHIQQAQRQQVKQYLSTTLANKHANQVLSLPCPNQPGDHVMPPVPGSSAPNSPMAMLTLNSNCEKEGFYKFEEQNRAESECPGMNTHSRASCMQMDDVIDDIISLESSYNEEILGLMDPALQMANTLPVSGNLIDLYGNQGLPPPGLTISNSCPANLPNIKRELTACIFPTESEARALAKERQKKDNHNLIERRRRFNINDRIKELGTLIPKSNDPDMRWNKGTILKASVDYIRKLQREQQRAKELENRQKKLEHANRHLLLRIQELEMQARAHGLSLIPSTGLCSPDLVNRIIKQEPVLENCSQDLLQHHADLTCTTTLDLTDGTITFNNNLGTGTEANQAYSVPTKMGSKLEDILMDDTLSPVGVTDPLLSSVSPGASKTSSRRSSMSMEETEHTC

[6] = molecular target: E3 ubiquitin-protein ligase Mdm2 (Homo sapiens, UniProt Q00987); test: enhancers of MDM2-luciferase reporter signal, concentration-effect titration, project on inhibitors of MDM2 ubiquitin ligase, cellular assay, luminescent readout, 384-well plate format (AID 1394); type: functional;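 note: MDM2 E3 inhibitors raise luminescence so EC50 is for signal enhancement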
A-375 = test: A375 melanoma cell viability reduction, dose response, counter-screen for MITF modulator project, cherry-pick samples, set 2 (AID 540335); type: functional, cell-based; settings: Homo sapiens
[7] = off-target signal loss in HeLa-CEM21 co-culture – HeLa F-luc CTL cells, cherry-picked, counter-screen for HIV-1 Env fusion inhibitor project, dose response (AID 652040); type: functional, cell-based;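 note: potency for signal decrease marking cytotoxic or nonspecific inhibition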
[8] = CEM21 lymphoblast cell cytotoxicity, dose response, cytotoxicity control for viral fusion inhibitor project, CellTiter-Glo luminescence, cherry-picked (AID 652042); type: functional, cell-based;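 note: potency for signal decrease meaning cytotoxicity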
[9] = ZM109 Env clade C HIV-1 fusion inhibitors, dose response, HeLa effector, CEM target cells, luciferase, cherry-pick (AID 652058); type: functional, cell-based
[10] = inhibitors of clade B AD8 Env fusion, dose response, cell-based, cherry-pick (AID 652062); type: functional;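 note: luciferase signal from cell-cell fusion driven by HIV-1 clade B AD8 Env; potency is for inhibitors of fusion seen as a drop in luminescence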
[11] = inhibitors of HIV Env-driven cell fusion, dose response, cherry-pick (AID 652057); type: functional, cell-based

E3 ubiquitin-protein ligase Mdm2, sequence (Q00987 whole entry): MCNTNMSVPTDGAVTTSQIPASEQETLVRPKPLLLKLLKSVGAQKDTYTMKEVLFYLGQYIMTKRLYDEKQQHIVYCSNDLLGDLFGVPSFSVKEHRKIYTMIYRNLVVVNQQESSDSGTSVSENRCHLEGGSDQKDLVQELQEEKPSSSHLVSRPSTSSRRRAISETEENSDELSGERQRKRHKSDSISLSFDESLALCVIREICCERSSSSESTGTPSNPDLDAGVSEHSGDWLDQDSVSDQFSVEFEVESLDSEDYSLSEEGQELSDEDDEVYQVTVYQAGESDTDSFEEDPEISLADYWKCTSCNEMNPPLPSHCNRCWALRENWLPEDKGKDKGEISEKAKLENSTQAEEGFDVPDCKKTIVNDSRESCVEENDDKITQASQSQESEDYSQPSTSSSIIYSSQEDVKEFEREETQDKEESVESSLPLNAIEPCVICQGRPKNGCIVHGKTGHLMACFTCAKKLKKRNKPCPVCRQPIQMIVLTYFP

| Compound | IC50 (HEK293 [1]) | IC50 [2] | EC50 (HEK293 [3]) | EC50 (HEK293 [4]) | other results |
| --- | --- | --- | --- | --- | --- |
| Cc1ccc(CCNC(=O)CC2Oc3ccc(C)cc3NC2=O)cc1 (stereo unspecified) | > 67.5 µM (inactive) | > 67.5 µM (inactive) | – | – | – |
| COc1ccc(C2CC(C(F)(F)F)n3ncc(C(=O)NCC4CCCO4)c3N2)cc1OC (stereo unspecified) | – | – | > 59.6 µM (inactive) | > 59.6 µM (inactive) | – |
| O=C1NC(=O)N(CCc2ccc(F)cc2)C(=O)/C1=C\C=C\c1ccccc1 | – | – | – | – | AC50 [5]: 8.26 µM (active); EC50 [6]: 0.13 µM (not active); AC50 (A-375): 33.6 µM (active) |
| Fc1ccc(Nc2nc(-c3cccnc3)cs2)cc1 | > 67.5 µM (inactive) | > 67.5 µM (inactive) | – | – | – |
| COc1ccc(CC(N)c2csc(NC(=O)Nc3ccccc3Cc3ccccc3)n2)cc1 (stereo unspecified) | – | – | > 59.7 µM (inactive) | > 59.7 µM (inactive) | AC50 [7]: 0.381 µM (active); AC50 [8]: 12.4 µM (active); AC50 [9]: 0.304 µM (active); AC50 [10]: 0.832 µM (active); AC50 [11]: < 0.26 µM (active) |
